Experimental data taken from patent publication US7067290B2, “Method for production of polyketides” (Kosan Biosciences Incorporated, priority 2002, dated 2006).

Assay: pH stability of triketide lactones in fermentation supernatant
Type: physicochemical
Settings: pH values above 6–8 (FIG. 1)
Method: Samples were centrifuged to remove cells and insoluble media components. If necessary, supernatants were diluted in 1:1 acetonitrile-water with 0.1% acetic acid. Samples were analyzed by HPLC-MS/MS, quantitating by comparison with an internal analytical standard of 2,4-dimethyl-3-hydroxyoctanoic acid δ-lactone (“P-TKL”). In cases where the purity of the analytic standard was doubtful, titers were renorted as arbitrary units. Samples were injected onto a C18 reversed-phase HPLC column and eluted with a gradient of acetonitrile in water containing 0.1% formic acid. Triketide lactones were detected using multiple reaction monitoring of the following MS/MS transitions: TKL: m/z 173 to 109; CM-TKL: m/z 193 to 119; V-TKL: m/z 171 to 107; and P-TKL: m/z 181 to 123.
To test the stability of CM-TKL and V-TKL in fermentation supernatant, the following experiment was undertaken. Supernatant from flask cultures was collected at the end of an experiment by centrifugation at 2700×g for 20 minutes. The supernatant was divided into four portions. The pH of the control portion was adjusted to 3.5, and that sample was frozen at −20° C. […] The samples were incubated for 18 hours at 30° C. then analyzed for product as described previously with the data reported as percent of the control.

| Structure (SMILES) | stability in fermentation broth |
| --- | --- |
| C[C@@H]1[C@H](O)[C@@H](C)C(=O)O[C@@H]1CCl [CM-TKL] | unstable |
| C=C[C@H]1OC(=O)[C@H](C)[C@@H](O)[C@H]1C [V-TKL] | unstable |
